Reference: patent US20240174723A1, “STAPLED ANTIMICROBIAL PEPTIDES (STAMPS) AND USES THEREOF” (Lytica Therapeutics, Inc., priority 2021, published 2024)
≈ marks a conversion by molar mass, not a printed value. Positions of bridges follow the written chain, without caps; N, C: chain ends. Non-standard residues stand in square brackets, D forms with d. Residues, ends and D or L forms follow the SMILES beside them. PEG4 = NCCOCCOCCOCCOCCC(=O)O; S5 = C=CCCC[C@](C)(N)C(=O)O

Columns and labels:
[1] = tested on: E. coli; format: cell-based, Escherichia coli
Outline: (§1)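 Read-out is visible growth: the MIC is the minimum peptide concentration showing none after 20-24 h at 37 °C. Peptides were serially diluted from water stocks and mixed with log-phase bacteria (final 5×10^5 CFU/ml) in Mueller-Hinton or cation-adjusted Mueller-Hinton broth.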

[2] = tested on: K. pneumoniae; format: cell-based, Klebsiella pneumoniae
Outline: as §1

[3] = in vitro; format: cell-based; conditions: human, Inhibitory Concentration at 50% Cytotoxicity (IC50) Human Liver Cells (HepG2)
Outline: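 HepG2 cells in EMEM with 10% FBS, allowed 4 h to attach, then exposed to serial dilutions of StAMPs (from a 5 mg/mL water stock) or vehicle. After 48 h at 37 °C, viability read by CellTiter-Glo luminescence.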

[4] = tested on: S. aureus; format: cell-based, Staphylococcus aureus
Outline: as §1

[5] = in vitro; format: cell-based; conditions: human
Outline: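 RPTEC or HepG2 cells plated overnight, given fresh media, then serial StAMP dilutions (from 5 mg/mL water stock) or vehicle at 37 °C. Cytotoxicity read as LDH release into media, absorbance 490 nm; renal toxicity after 90 min, liver toxicity after 48 h incubation.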

[6] = tested on: A. baumannii; format: cell-based, Acinetobacter baumannii
Outline: as §1

[7] = tested on: P. aeruginosa; format: cell-based, Pseudomonas aeruginosa
Outline: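 Broth microdilution adapted from CLSI in MHB or cation-adjusted MHB; log-phase P. aeruginosa at 5×10^5 CFU/ml final with serially diluted stapled peptides. Incubated 20-24 h at 37 °C; MIC is the lowest concentration without visible growth.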

| Compound | Minimum Inhibitory Concentration (MIC) E. coli [1] [µg/mL] | Minimum Inhibitory Concentration (MIC) K. pneumoniae [2] [µg/mL] | IC50 at 48 hours [3] [µg/mL] | Minimum Inhibitory Concentration (MIC) S. aureus [4] [µg/mL] | IC50 at 90 min [5] [µg/mL] | Minimum Inhibitory Concentration (MIC) A. baumannii [6] [µg/mL] | Minimum Inhibitory Concentration (MIC) P. aeruginosa [7] [µg/mL] |
| --- | --- | --- | --- | --- | --- | --- | --- |
| CC(C)[C@@H]1NC(=O)[C@@](C)(NC(=O)[C@H](C)NC(=O)[C@H](CCCCN)NC(=O)CNC(=O)[C@H](Cc2ccccc2)NC(=O)[C@H](CCCCN)NC(=O)[C@H](CCCCN)NC(=O)[C@H](CCCCN)NC(=O)[C@H](CCCCN)NC(=O)[C@H](CCCCN)NC(=O)[C@]2(C)CCCC=CCCC[C@](C)(NC(=O)CN)C(=O)NCC(=O)N[C@@H](CCCCN)C(=O)N[C@@H](Cc3ccccc3)C(=O)N2)CCCC=CCCC[C@@](C)(C(=O)N[C@@H](C)C(=O)N[C@@H](CCCCN)C(=O)N[C@@H](CCCCN)C(=O)NCCOCCOCCOCCOCCC(N)=O)NC(=O)[C@H](CCC(=O)O)NC(=O)CNC1=O [compound 74] (H-G[S5]GKF[S5]KKKKKFGKA[S5]VGE[S5]AKK[PEG4]-NH2; staple 2-6, 16-20) | 2 | 4 | 430 (≈ 153 µM) | >64 | > 200 | 2 | 4 |
| CC(C)[C@@H]1NC(=O)[C@@](C)(NC(=O)[C@H](Cc2c[nH]c3ccccc23)NC(=O)[C@H](CCCCN)NC(=O)CNC(=O)[C@H](Cc2ccccc2)NC(=O)[C@H](CCCCN)NC(=O)[C@H](CCCCN)NC(=O)[C@H](CCCCN)NC(=O)[C@H](CO)NC(=O)[C@H](Cc2c[nH]cn2)NC(=O)[C@]2(C)CCCC=CCCC[C@](C)(NC(=O)CN)C(=O)NCC(=O)N[C@@H](CCCCN)C(=O)N[C@@H](Cc3ccccc3)C(=O)N2)CCCC=CCCC[C@@](C)(C(=O)N[C@@H](C)C(=O)N[C@@H](CCCCN)C(=O)N[C@@H](CCCCN)C(N)=O)NC(=O)[C@H](CCC(=O)O)NC(=O)CNC1=O [compound 63] (H-G[S5]GKF[S5]HSKKKFGKW[S5]VGE[S5]AKK-NH2; staple 2-6, 16-20) | 4 | 8 | 60 (≈ 22.7 µM) | 16 | 32 (≈ 12.1 µM) | 4 | 6 |
| CC(C)[C@@H]1NC(=O)[C@@](C)(NC(=O)[C@H](C)NC(=O)[C@H](CCCCN)NC(=O)CNC(=O)[C@H](Cc2ccccc2)NC(=O)[C@H](CCCCN)NC(=O)[C@H](CCCCN)NC(=O)[C@H](CCCCN)NC(=O)[C@H](CO)NC(=O)[C@H](Cc2c[nH]cn2)NC(=O)[C@]2(C)CCCC=CCCC[C@](C)(NC(=O)CN)C(=O)NCC(=O)N[C@@H](CCCCN)C(=O)N[C@@H](Cc3ccccc3)C(=O)N2)CCCC=CCCC[C@@](C)(C(=O)N[C@@H](C)C(=O)N[C@@H](CCCCN)C(=O)N[C@@H](Cc2c[nH]c3ccccc23)C(N)=O)NC(=O)[C@H](CCC(=O)O)NC(=O)CNC1=O [compound 67] (H-G[S5]GKF[S5]HSKKKFGKA[S5]VGE[S5]AKW-NH2; staple 2-6, 16-20) | 4 | 8 | 52 (≈ 20.1 µM) | 16 | 27 (≈ 10.4 µM) | 4 | 16 |
| CC(C)[C@@H]1NC(=O)[C@@](C)(NC(=O)[C@H](C)NC(=O)[C@H](CCCCN)NC(=O)CNC(=O)[C@H](Cc2ccccc2)NC(=O)[C@H](CCCCN)NC(=O)[C@H](CCCCN)NC(=O)[C@H](CCCCN)NC(=O)[C@H](CO)NC(=O)[C@H](Cc2c[nH]cn2)NC(=O)[C@]2(C)CCCC=CCCC[C@](C)(NC(=O)CN)C(=O)NCC(=O)N[C@@H](CCCCN)C(=O)N[C@@H](Cc3ccccc3)C(=O)N2)CCCC=CCCC[C@@](C)(C(=O)N[C@@H](C)C(=O)N[C@@H](CCCCN)C(=O)N[C@@H](CCCCN)C(N)=O)NC(=O)[C@H](CCC(N)=O)NC(=O)CNC1=O [compound 17] (H-G[S5]GKF[S5]HSKKKFGKA[S5]VGQ[S5]AKK-NH2; staple 2-6, 16-20) | 3 | 32 | > 200 | >64 | ~180 (≈ 71.1 µM) | 2 | 4 |
| CC(C)C[C@@H]1NC(=O)[C@H](C(C)C)NC(=O)[C@@](C)(NC(=O)[C@H](C)NC(=O)[C@H](CCCCN)NC(=O)CNC(=O)[C@H](Cc2ccccc2)NC(=O)[C@H](CCCCN)NC(=O)[C@H](CCCCN)NC(=O)[C@H](CCCCN)NC(=O)[C@H](CO)NC(=O)[C@H](Cc2c[nH]cn2)NC(=O)[C@]2(C)CCCC=CCCC[C@](C)(NC(=O)CN)C(=O)NCC(=O)N[C@@H](CCCCN)C(=O)N[C@@H](Cc3ccccc3)C(=O)N2)CCCC=CCCC[C@@](C)(C(=O)N[C@@H](C)C(=O)N[C@@H](CCCCN)C(=O)N[C@@H](CCCCN)C(N)=O)NC(=O)[C@H](CCC(=O)O)NC1=O [compound 12] (H-G[S5]GKF[S5]HSKKKFGKA[S5]VLE[S5]AKK-NH2; staple 2-6, 16-20) | 2 | 4 | ~200 (≈ 77.3 µM) | >64 | ~200 (≈ 77.3 µM) | 2 | 4 |
| CC(C)[C@@H]1NC(=O)[C@@](C)(NC(=O)[C@H](C)NC(=O)[C@H](CCCCN)NC(=O)CNC(=O)[C@H](Cc2ccccc2)NC(=O)[C@H](CCCCN)NC(=O)[C@H](CCCCN)NC(=O)[C@H](CCCCN)NC(=O)[C@H](CO)NC(=O)[C@H](Cc2c[nH]cn2)NC(=O)[C@]2(C)CCCC=CCCC[C@](C)(NC(=O)CN)C(=O)NCC(=O)N[C@@H](CCCCN)C(=O)N[C@@H](Cc3ccccc3)C(=O)N2)CCCC=CCCC[C@@](C)(C(=O)N[C@@H](C)C(=O)N[C@@H](CCCCN)C(=O)N[C@@H](CCCCN)C(N)=O)NC(=O)[C@H](CC(N)=O)NC(=O)CNC1=O [compound 18] (H-G[S5]GKF[S5]HSKKKFGKA[S5]VGN[S5]AKK-NH2; staple 2-6, 16-20) | 4 | 64 | > 200 | >64 | ~200 (≈ 79.5 µM) | 2 | 4 |
| CC(C)[C@@H]1NC(=O)[C@@](C)(NC(=O)[C@H](C)NC(=O)[C@H](CCCCN)NC(=O)CNC(=O)[C@H](Cc2ccccc2)NC(=O)[C@H](CCCCN)NC(=O)[C@H](CCCCN)NC(=O)[C@H](CCCCN)NC(=O)[C@H](CO)NC(=O)[C@H](Cc2c[nH]cn2)NC(=O)[C@]2(C)CCCC=CCCC[C@](C)(NC(=O)CN)C(=O)NCC(=O)N[C@@H](CCCCN)C(=O)N[C@@H](Cc3ccccc3)C(=O)N2)CCCC=CCCC[C@@](C)(C(=O)N[C@@H](C)C(=O)N[C@@H](CCCCN)C(=O)N[C@@H](CCCCN)C(N)=O)NC(=O)[C@H](Cc2c[nH]c3ccccc23)NC(=O)CNC1=O [compound 66] (H-G[S5]GKF[S5]HSKKKFGKA[S5]VGW[S5]AKK-NH2; staple 2-6, 16-20) | 4 | 4 | 38 (≈ 14.7 µM) | 32 | 16 (≈ 6.18 µM) | 4 | 6 |
| CC(C)[C@@H]1NC(=O)[C@@](C)(NC(=O)[C@H](C)NC(=O)[C@H](CCCCN)NC(=O)CNC(=O)[C@H](Cc2ccccc2)NC(=O)[C@H](CCCCN)NC(=O)[C@H](CCCCN)NC(=O)[C@H](CCCCN)NC(=O)[C@H](CCCCN)NC(=O)[C@H](Cc2c[nH]cn2)NC(=O)[C@]2(C)CCCC=CCCC[C@](C)(NC(=O)CN)C(=O)NCC(=O)N[C@@H](CO)C(=O)N[C@@H](Cc3ccccc3)C(=O)N2)CCCC=CCCC[C@@](C)(C(=O)N[C@@H](C)C(=O)N[C@@H](CCCCN)C(=O)N[C@@H](CCCCN)C(N)=O)NC(=O)[C@H](CCC(=O)O)NC(=O)CNC1=O [compound 5] (H-G[S5]GSF[S5]HKKKKFGKA[S5]VGE[S5]AKK-NH2; staple 2-6, 16-20) | 4 | >64 | > 200 | >64 | > 200 | 4 | 4 |
